Data: EPA's ToxRefDB 2

Columns and labels:
primate [1] = conditions: Sub-acute repeat dose toxicity, Oral, Gavage/Intubation, dose end: 30 day, group: systemic
primate [2] = conditions: Sub-acute repeat dose toxicity; Oral; Gavage/Intubation; dose end: 4 day; group: systemic; systemic / in life observation / clinical signs / ataxia + systemic / in life observation / clinical signs / emesis + systemic / in life …
rat [3] = conditions: Sub-acute repeat dose toxicity, Oral, Gavage/Intubation, dose end: 30 day, group: systemic
primate [4] = conditions: Sub-acute repeat dose toxicity; Oral; Gavage/Intubation; dose end: 10 day; group: systemic; systemic / clinical chemistry / alanine aminotransferase (alt/sgpt) / alanine aminotransferase (alt/sgpt) + systemic / clinical chemistry / …
rat [5] = conditions: Sub-acute repeat dose toxicity; Oral; Gavage/Intubation; dose end: 10 day; group: systemic; systemic / hematology / erythrocyte (rbc) count differential / erythrocyte (rbc) + systemic / hematology / hematocrit (hct) / hematocrit (…
rat [6] = conditions: Sub-acute repeat dose toxicity, sprague dawley, Oral, Gavage/Intubation, dose end: 14 day, group: systemic
rat [7] = conditions: Sub-acute repeat dose toxicity, sprague dawley, Oral, Gavage/Intubation, dose end: 14 day, group: systemic; remark: listed apart in the source
primate [8] = conditions: Sub-acute repeat dose toxicity; Oral; Gavage/Intubation; dose end: 15 day; group: systemic; systemic / in life observation / clinical signs / emesis
primate [9] = conditions: Sub-acute repeat dose toxicity, Oral, Gavage/Intubation, dose end: 14 day, group: systemic
dog = conditions: Sub-acute repeat dose toxicity, beagle, Oral, Gavage/Intubation, dose end: 10 day, group: systemic
primate [10] = conditions: Sub-acute repeat dose toxicity; Oral; Gavage/Intubation; dose end: 20 day; group: systemic; systemic / in life observation / clinical signs / emesis
mouse = conditions: Carcinogenicity; b6c3f1; Oral; Feed; dose end: 80 week; group: systemic; systemic / pathology microscopic / liver / carcinoma
rat [11] = conditions: Carcinogenicity; other; Oral; Feed; dose end: 80 week; group: systemic; systemic / in life observation / body weight / body weight + systemic / in life observation / clinical signs / [other] + systemic / in life …
[12] = systemic / clinical chemistry / cytochrome p450, nos / cytochrome p450, nos + systemic / hematology / blood clotting / blood clotting - …
[13] = systemic / clinical chemistry / cholesterol / cholesterol + systemic / clinical chemistry / cytochrome p450, nos / cytochrome p450, nos + …
[14] = systemic / clinical chemistry / urea nitrogen / urea nitrogen + systemic / hematology / neutrophils / neutrophils
[15] = systemic / clinical chemistry / albumin / albumin + systemic / clinical chemistry / globulins / globulins + systemic / clinical chemistry / …
[16] = systemic / in life observation / clinical signs / salivation
[17] = systemic / clinical chemistry / albumin / albumin + systemic / clinical chemistry / cholesterol / cholesterol + systemic / hematology / …
[18] = systemic / clinical chemistry / alanine aminotransferase (alt/sgpt) / alanine aminotransferase (alt/sgpt) + systemic / clinical chemistry / …
[19] = systemic / in life observation / clinical signs / emesis + systemic / in life observation / clinical signs / reduced activity
[20] = systemic / in life observation / clinical signs / emesis
[21] = systemic / in life observation / clinical signs / emesis + systemic / in life observation / clinical signs / abnormal feces

CC(C)(C)c1nnc2ccc(-c3ocnc3-c3cc(F)c(F)cc3F)cn12
LOAEL (primate [1]; [12]): > 100 mg/kg/day | NEL (primate [1]; [12]): 3 mg/kg/day | NOAEL (primate [1]; [12]): ≥ 100 mg/kg/day | LEL (primate [1]; systemic / hematology / fibrinogen / fibrinogen): 10 mg/kg/day | LEL (primate [2]): 100 mg/kg/day | LOAEL (primate [2]): > 100 mg/kg/day | NEL (primate [2]): < 100 mg/kg/day | NOAEL (primate [2]): ≥ 100 mg/kg/day | LOAEL (rat [3]; [13]): > 100 mg/kg/day | NOAEL (rat [3]; [13]): ≥ 100 mg/kg/day | LEL (rat [3]; [14]): 3 mg/kg/day | NEL (rat [3]; [14]): < 3 mg/kg/day | LEL (primate [4]): 10 mg/kg/day | LOAEL (primate [4]): > 100 mg/kg/day | NEL (primate [4]): < 10 mg/kg/day | NOAEL (primate [4]): ≥ 100 mg/kg/day | LEL (rat [5]): 10 mg/kg/day | LOAEL (rat [5]): > 100 mg/kg/day | NEL (rat [5]): < 10 mg/kg/day | NOAEL (rat [5]): ≥ 100 mg/kg/day

CC(C)(O)c1ccc(CNC(=O)c2cccnc2Oc2ccc3nonc3c2)cc1
LOAEL (rat [6]; [15]): > 160 mg/kg/day | NOAEL (rat [6]; [15]): ≥ 160 mg/kg/day | LEL (rat [6]; [16]): 5 mg/kg/day | NEL (rat [6]; [16]): < 5 mg/kg/day | LOAEL (rat [7]; [17]): > 125 mg/kg/day | NEL (rat [7]; [17]): 5 mg/kg/day | NOAEL (rat [7]; [17]): ≥ 125 mg/kg/day | LEL (rat [7]; systemic / pathology microscopic / mesentery / inflammation): 25 mg/kg/day | LEL (primate [8]): 5 mg/kg/day | LOAEL (primate [8]): > 50 mg/kg/day | NEL (primate [8]): 1 mg/kg/day | NOAEL (primate [8]): ≥ 50 mg/kg/day | LOAEL (primate [9]; [18]): > 1000 mg/kg/day | NOAEL (primate [9]; [18]): ≥ 1000 mg/kg/day | LEL (primate [9]; [19]): 20 mg/kg/day | NEL (primate [9]; [19]): < 20 mg/kg/day | LEL (dog; [20]): 10 mg/kg/day | NEL (dog; [20]): < 10 mg/kg/day | LOAEL (dog; [21]): > 250 mg/kg/day | NOAEL (dog; [21]): ≥ 250 mg/kg/day | LEL (primate [10]): 20 mg/kg/day | LOAEL (primate [10]): > 300 mg/kg/day | NEL (primate [10]): < 20 mg/kg/day | NOAEL (primate [10]): ≥ 300 mg/kg/day

Nc1cc(Cl)cc(C(=O)O)c1Cl [Chloramben]
LEL (mouse): 1500 mg/kg/day | LOAEL (mouse): > 3000 mg/kg/day | NEL (mouse): < 1500 mg/kg/day | NOAEL (mouse): ≥ 3000 mg/kg/day | LEL (rat [11]): 1000 mg/kg/day | LOAEL (rat [11]): > 1000 mg/kg/day | NEL (rat [11]): 500 mg/kg/day | NOAEL (rat [11]): ≥ 1000 mg/kg/day
